Marks after values point to notes of the source that are not given here.
How the values were obtained:
[1] = target: T1, ST3Gal-II (Rattus norvegicus, UniProt Q11205); experiment: Reverse sialylation: transfer of [9-3H]NeuAc from sialylated donor to nucleotide phosphates (WGA-agarose); type: biochemical; conditions: for Incorporation of [9-3H]NeuAc expressed as percent of the CPM incorporated into 5′-CMP: nucleotide phosphate 1 mM as acceptor, donor [1]
T1 construct: purchased Calbiochem
T1 sequence (Q11205 1-350): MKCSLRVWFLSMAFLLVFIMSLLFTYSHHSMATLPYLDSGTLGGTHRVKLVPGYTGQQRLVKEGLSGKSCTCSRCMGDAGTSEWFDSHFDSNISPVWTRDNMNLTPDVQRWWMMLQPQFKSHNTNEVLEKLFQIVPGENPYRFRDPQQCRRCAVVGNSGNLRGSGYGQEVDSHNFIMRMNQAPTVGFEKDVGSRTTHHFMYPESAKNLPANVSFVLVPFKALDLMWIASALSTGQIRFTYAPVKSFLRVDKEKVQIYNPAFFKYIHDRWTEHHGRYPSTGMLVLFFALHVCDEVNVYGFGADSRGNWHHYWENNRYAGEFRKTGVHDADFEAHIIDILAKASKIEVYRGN
Description: FIG. 1. Nucleotide phosphates as acceptors of radioactivity from [9-^3H]NeuAcα2,3Galβ,13 (GlcNAcβ1,6)GalNAcα-O—Al (Al=Allyl) [[9-^3H] [1]] in the presence of ST3Gal-II (scheme-I). Reaction mixtures (RM) with the following composition were incubated at 37° C. for 21 hours in 100 mM NaCa Codylate buffer, pH6.0: i) RM containing 150 μM (0.4 μCi) [[9-^3H] [1]] (donor) along with 0.8 mU ST3Gal-II but no 5″-CMP; and, ii) RM containing [[9-^3H] [1]] and 1.0 mM 5′-CMP, along with ST3Gal-II. Products formed were fractionated on a WGA-agarose column. […] The feasibility of the reverse reaction is well established in literature. Schematic symbols: ♦:sialic acid, ●:Gal, □:GalNAc, ▪:GlcNAc.
All enzymatic sialylation reactions were typically carried out in 100 mM NaCa Codylate buffer pH6.0 in the presence of enzyme, synthetic acceptor (at 7.5 mM or as indicated in each experiment) and 0.2 μCi CMP-[9-^3H]NeuAc (NEN-Dupont, 29 mCi/μmol). The concentration of total CMP-NeuAc was adjusted in individual reactions by supplementing with additional cold CMP-NeuAc. Reaction volume was 20 μl. Products formed were separated using four different chromatography procedures (below). In all cases, the radioactive content of isolated products was determined by using 3a70 scintillation cocktail (Research Products International, Mount Prospect, Ill.), and a Beckman LS6500 scintillation counter.
a) Biogel P2 chromatography: A Biogel P2 column (Fine Mesh; 1.0×116.0 cm) was used with 0.1 M pyridine acetate (pH5.4) as the eluent at room temperature. […] Fractions of 1.0 ml were collected. The bound material was then eluted with 0.5M GlcNAc or 0.2M Gal in the same buffer. […] Calculation of equilibrium constant, Keq: Equilibrium constant was calculated for selected reversible bimolecular reactions that are denoted by:
Cloned and purified rat sialyltransferase α2,3(O)ST (ST3Gal-II) is used in many experiments presented in this manuscript. […] In order to determine if the sialylation reaction is reversible (FIG. 1), [9-^3H]NeuAcα2,3Galβ,13(GlcNAcβ1,6)GalNAcα-O—Al (Al=Allyl) [9-^3H[1]] was prepared using ST3Gal-II in the presence of CMP-[9-^3H]NeuAc and the trisaccharide acceptor Galβ1,3(GlcNAcβ1,6)GalNAcα-O—Al, and the radiolabeled product was isolated using Biogel P2 chromatography. […] Two different reaction mixtures were then prepared with: i) [9-^3H[1]] and ST3Gal-II but without 5″-CMP; and ii) [9-^3H[1]] and 5″-CMP along with ST3Gal-II.

[2] = target: T1, ST3Gal-II; experiment: Serial transfer of sialic acid from donor via 5′-CMP to acceptors (scheme-II); type: biochemical; conditions: for Incorporation of [9-3H]NeuAc from donor [3], percent of the CPM incorporated into [5]: 150 μM donor [3]
Description: FIG. 3. Serial transfer of sialic acid using scheme-II was followed at increasing concentrations of acceptor D-Fucβ1,3GalNAcα-O-Bn. The donor used was either: i) 0.15 mM [9-^3H]CMP-NeuAc; or, ii) 0.15 mM [9-^3H]NeuAcα2,3Galβ1,3(4-FGlcNAcβ1,6)GalNAcα-O-Bn [9-^3H [2]] in the presence of 2.0 mM 5′-CMP, or iii) [9-^3H]NeuAcα2,3Galβ1,3(6-O-SulfoGlcNAcβ1,6)GalNAcα-O—Al [[9-^3H] [4]] in the presence of 2.0 mM 5′-CMP. In runs where [9-^3H [2]] was donor since both and [2] bind C18 cartridges, control runs were performed in the absence of D-Fucβ1,3GalNAcα-O-Bn to estimate the amount of [9-^3H]CMP-NeuAc formed under the experimental conditions. 80-85% of the radioactivity was transferred to CMP-NeuAc in these runs. The amount of CMP-NeuAc remaining in runs with was then subtracted from CMP-NeuAc radioactivity in the control run to determine the amount of sialylated. To complement this run, studies were also performed with [[9-^3H] […] In these runs, the amount of sialylated was determined by measuring radioactivity retained in the C18-cartridge. a. Equilibrium constant was 5.55 when CMP-[9-^3H]NeuAc was donor. b. ˜10-fold lower acceptor concentration was required for similar extents of reaction when CMP-[9-^3H]NeuAc was donor, compared to core-2 based donors and [4].
We tested the possibility that CMP-NeuAc formed above may be available for transfer to other acceptors using ST3Gal-II (scheme-II, FIG. 3). For this, three radiolabeled donors were prepared using methods described above: two were based on the mucin Core-2 structure ([[9-^3H] [1]] and [9-^3H]NeuAcα2,3Galβ1,3(6-O-SulfoGlcNAcβ1,6)GalNAcα-O—Al [[9-^3H] [4]]) while the third was based on the Globo glycolipid ([9-^3H] [3]). The transfer of [9-^3H]NeuAc from these sialylated donors to various T-hapten (Galβ1,3GalNAcα) and mucin core2-based glycoside acceptors in the presence of 5′-CMP and ST3Gal-II was assessed (Table III). All three […] of ST3Gal-II ([1], [3] and [4]) allowed formation of CMP-[9-^3H]NeuAc, and a diverse array of products.
The transfer of [9-^3H]NeuAc from [[9-^3H][1]] to D-Fucβ1,3GalNAcα-O-Bn in the presence of 5′-CMP and ST3Gal-II increased linearly in the first two hours and it reached saturation at 4 hours (FIG. 12), and thus the data in Table III (4 hours time point) represent equilibrium conditions. […] Further, diverse sialylated products can be formed using the same synthetic sialylated donor.
In order to compare the efficiency of individual reactions of scheme II, independent runs were performed where either 0.15 mM [9-^3H]CMP-NeuAc, 0.15 mM [9-^3H] [2] or 0.15 mM [9-^3H] [4] was the donor, and [5] was the acceptor (FIG. 3). 2 mM 5′-CMP was added in runs with core-2 donors and [4], and thus reverse sialylation of these molecules was feasible. Keq for transfer of sialic acid from CMP-NeuAc to [5] was 5.55 (FIG. 3a). […] (˜6 mM) or [9-^3H[4]] (˜6 mM). Thus, while the two-step mechanism results in lower conversion than CMP-NeuAc alone, the transfer of NeuAc still takes place at an appreciable rate.

[3] = acceptor 2.5 mM, 1 mM 5′-CMP, 4 hours
[4] = acceptor 2.5 mM, 150 μM donor [4], 1 mM 5′-CMP, 4 hours
[5] = acceptor 2.5 mM, 150 μM donor [1], 1 mM 5′-CMP, 4 hours

| Incorporation of [9-3H]NeuAc expressed as percent of the CPM incorporated into 5′-CMP [1] [%] | Incorporation of [9-3H]NeuAc from donor [3], percent of the CPM incorporated into [5] [2, 3] [%] | Incorporation of [9-3H]NeuAc from donor [4], percent of the CPM incorporated into [5] [2, 4] [%] | Incorporation of [9-3H]NeuAc from donor [1], percent of the CPM incorporated into [5] [2, 5] [%] | Molecule | other results |
| --- | --- | --- | --- | --- | --- |
|  | 3.3 | 21.5 | 43.0 | COC[C@H]1O[C@H](OCc2ccccc2)[C@H](NC(C)=O)[C@@H](O[C@@H]2O[C@H](CO)[C@H](O)[C@H](O)[C@H]2O)[C@H]1O [[8], Galβ1,3(6-O-Me)GalNAcα-O-Bn] |  |
|  |  | 10.0 | 22.4 | CO[C@H]1[C@@H](O)[C@@H](CO)O[C@@H](O[C@H]2[C@H](O)[C@@H](NC(C)=O)[C@H](OC[C@H]3O[C@H](OCc4ccccc4)[C@H](NC(C)=O)[C@@H](O[C@@H]4O[C@H](CO)[C@H](O)[C@H](O)[C@H]4O)[C@H]3O)O[C@@H]2CO)[C@@H]1O [[9], 3-O-MeGalβ1,4GlcNAcβ1,6(Galβ1,3)GalNAcα-O-Bn] |  |
|  | 0.2 | 2.7 | 8.9 | CO[C@@H]1[C@H](O)[C@@H](O)[C@H](O[C@H]2[C@@H](O)[C@@H](CO)O[C@H](OCc3ccccc3)[C@@H]2NC(C)=O)O[C@@H]1CO [[11], 4-O-MeGalβ1,3GalNAcα-O-Bn] |  |
|  | 0.5 | 1.9 |  | CC(=O)N[C@H]1[C@H](OCc2ccccc2)O[C@H](CO)[C@@H](O[C@@H]2O[C@H](CO)[C@H](O)[C@H](O)[C@H]2O)[C@@H]1O [[12], Galβ1,4GlcNAcβ-O-Bn] |  |
|  |  | 0 | 1.3 | CO[C@@H]1[C@H](O)[C@@H](O)[C@H](O[C@H]2[C@@H](O)[C@@H](CO[C@@H]3O[C@H](CO)[C@@H](O[C@@H]4O[C@H](CO)[C@H](O)[C@H](O)[C@H]4O)[C@H](O)[C@H]3NC(C)=O)O[C@H](OCc3ccccc3)[C@@H]2NC(C)=O)O[C@@H]1CO [[13], Galβ1,4GlcNAcβ1,6(4-O-MeGalβ1,3)GalNAcα-O-Bn] |  |

The remaining lines, values behind:

| Molecule | Incorporation of [9-3H]NeuAc expressed as percent of the CPM incorporated into 5′-CMP [1] [%] | Incorporation of [9-3H]NeuAc from donor [3], percent of the CPM incorporated into [5] [2, 3] [%] | Incorporation of [9-3H]NeuAc from donor [4], percent of the CPM incorporated into [5] [2, 4] [%] | Incorporation of [9-3H]NeuAc from donor [1], percent of the CPM incorporated into [5] [2, 5] [%] | other results |
| --- | --- | --- | --- | --- | --- |
| Nc1ccn([C@@H]2O[C@H](CO)[C@@H](OP(=O)(O)O)[C@H]2O)c(=O)n1 [3′-CMP] | 2.4 |  |  |  |  |
| Nc1ncnc2c1ncn2[C@@H]1O[C@H](COP(=O)(O)O)[C@@H](O)[C@H]1O [5′-AMP] | 3.0 |  |  |  |  |
| Nc1ccn([C@@H]2O[C@H](COP(=O)(O)OP(=O)(O)OP(=O)(O)O)[C@@H](O)[C@H]2O)c(=O)n1 [5′-CTP, cytidine triphosphate] | 1.6 |  |  |  |  |
| Nc1nc2c(ncn2[C@@H]2O[C@H](COP(=O)(O)O)[C@@H](O)[C@H]2O)c(=O)[nH]1 [5′-GMP] | 2.3 |  |  |  |  |
| Cc1cn([C@H]2C[C@H](O)[C@@H](COP(=O)(O)O)O2)c(=O)[nH]c1=O [5′-TMP] | 1.1 |  |  |  |  |
| CC(=O)N[C@H]1[C@H](OC[C@H]2O[C@H](OCc3ccccc3)[C@H](NC(C)=O)[C@@H](O[C@@H]3O[C@H](C)[C@H](O)[C@H](O)[C@H]3O)[C@H]2O)O[C@H](CO)[C@@H](O)[C@@H]1O [[6], D-Fucβ1,3(GlcNAcβ1,6)GalNAcα-O-Bn] |  | 106.5 | 96.9 |  |  |
| CC(=O)N[C@H]1[C@@H](OCc2ccccc2)O[C@H](CO)[C@H](O)[C@@H]1O[C@@H]1O[C@H](CO)[C@H](F)[C@H](O)[C@H]1O [[7], 4-FGalβ1,3GalNAcα-O-Bn] |  | 4.1 | 33.3 | 60.8 |  |
| D-Fucβ1,3GalNAcα-O-Bn [[5]] |  | 100.0 | 100.0 | 100.0 | Incorporation of [9-3H]NeuAc from donor [1] [2, 5]: (34569 CPM); Incorporation of [9-3H]NeuAc from donor [3] ([2]; acceptor 2.5 mM, 150 μM donor [3] of lower specific radioactivity, 1 mM 5′-CMP, 4 hours): (6224 CPM)***; Incorporation of [9-3H]NeuAc from donor [4] [2, 4]: (97675 CPM); Keq for transfer of sialic acid from CMP-NeuAc to [5] ([2]; donor 0.15 mM CMP-[9-3H]NeuAc): 5.55 |
| [9-^3H]NeuAcα2,3Galβ,13 (GlcNAcβ1,6)GalNAcα-O—Al [[1]] |  |  |  |  | transfer of radioactive [9-3H]NeuAc from donor to 5′-CMP ([1]; 150 μM donor, 1.0 mM 5′-CMP): > 90% |
